Laboratory results from patent US4721730A, “Adsorbent for β2 -microglobulin and immunoglobulin L-chain” (Kanegafuchi Kagaku Kogyo Kabushiki Kaisha, priority 1986, dated 1988).

Tested on: β2-m and L-chain
Assay: adsorption ability of immobilized compounds / carriers for β2-m and L-chain
Format: binding
Conditions: compound immobilized onto a carrier; in words
Description: In order to find out a compound which has an effect on adsorbing β2 -m and L-chain, compounds having various log P are immobilized onto a carrier.
As the result of an investigation using carriers having various molucular weights of the exclusion limit, it is shown that the preferable range of pore size indicated by molecular weight of the exclusion limit is from 1×10^4 to 6×10^5. […] Therefore, the molecular weight of the exclusion limit of the carrier empolyed in the present invention is preferably from 1×10^4 to 6×10^5,more preferably from 2×10^4 to 3×10^5.

## CCCCCCCCN [n-octylamine]
  adsorption ability of β2-m and L-chain: extraordinarily increased
